A short description of data set [1]: In vivo pharmacokinetics (PK) in mice dosed PO.
Data set [2] concerns STAT3 phosphorylation (Y705). The data set is described as follows: Western blot of STAT3 phosphorylation in medulloblastoma cells. In kind it is cell-based, human. The text has this: (§1) Cells was harvested and extracted using cell lysis buffer (Cell Signaling) supplemented with phosphatase and protease inhibitors. Tumors from mice were grinded in the liquid nitrogen, and extracted proteins using cell lysis buffer supplemented with phosphatase and protease inhibitors. Extracted protein samples were separated by 10% SDS-PAGE and transferred to polyvinylidene difluoride membranes. After blocking with TBS-T buffer containing 5% skim milk (Lab Scientific Inc) at room temperature for 1 h, each membrane was incubated at 4 °C overnight with one of the following primary antibodies at 1:1,000 dilution: rabbit anti-phosphorylated STAT3 (Y705), rabbit anti-STAT3, rabbit anti-phosphorylated STAT1 (Y701), rabbit anti-STAT1, rabbit anti-Cyclin D1, rabbit anti-Survivin, and rabbit anti-GAPDH. Subsequently, each membrane was washed with TBS-T and incubated with horseradish peroxidase-conjugated secondary antibody (1:10,000) at room temperature for 1.5 h. Proteins of interest were visualized using SUPERSIGNAL West Femto Maximum Sensitivity Substrate (Thermo, #34096). Quantification was performed using ImageJ.
(In general: In western blotting, separated proteins are transferred to a membrane and probed.)

In the next data set the test system is Cyclin D1 and Survivin. The data set is described as follows: Western blot of STAT3 downstream targets in medulloblastoma cells. Type of data set: cell-based, human. As to conditions: D283, D425, UW426, UW288 cells; 0.5 to 2.5 μM, 16 h.
Text: as §1

The subject of the next data set is P-AKT. As to the kind of experiment: Western blot of P-AKT in medulloblastoma cells. To be noted: 4 or 8 h. Type of data set: cell-based, human.
The next data set relates to P-ERK. The data set is described as follows: Western blot of P-ERK in medulloblastoma cells. As to conditions: 0.5 to 2.5 μM, 4 or 8 h. In kind it is cell-based, human.
For data set [3], the system named is IL-6 induced phosphorylation of STAT3. The data set is described as follows: IL-6 stimulated P-STAT3 in DaoY cells (Western blot). To be noted: 1 and 2.5 μM for 4 h, then IL-6 50 ng/mL 30 min. Type of data set: cell-based, human.
Text: as §1
(§2) To verify the selective toxicity of LLL12B, DaoY human medulloblastoma cell line was used and treated with LLL12B (1 and 2.5 μM) or DMSO for 4 h followed by induction of IL-6 or INF-γ (50 ng/mL) for 30 min. […]

Data set [4] relates to INF-γ stimulated STAT1 phosphorylation. The data set is described as follows: INF-γ induced P-STAT1 in DaoY cells (Western blot). In kind it is cell-based, human. As to conditions: 1 and 2.5 μM for 4 h, then INF-γ 50 ng/mL 30 min.
Text: as §1, §2

Data set [5] concerns D425 medulloblastoma cells. As to the kind of experiment: MTT cell viability assay, D425. In kind it is cell-based, human. As to conditions: 0.5 μM, 48 h, siRNA transfection experiment. The protocol: SignalSilence STAT3 siRNA I was purchased from Cell Signaling (#6580) and medulloblastoma cells were transfected using Lipofectamine 2000 reagent (Invitrogen). The sequence of STAT3 siRNA: GGUCCCUCAUCCUGUUUGU, ACAAACAGGAUGAGGGACC. AMBION SILENCER Negative Control siRNA (#AM4611) was purchased from Invitrogen. Cells were seeded in 96-well plates (8,000 cells/well) and allowed to adhere overnight. siRNA and Lipofectamine 2000 were diluted at 1:50 in Opti-MEM medium respectively. Gently mixed and incubated at room temperature for 5 min, and then the diluted siRNA was added to the diluted Lipofectamine 2000 reagent (1:1 ratio) with an additional incubation of 25 min. The final concentration of siRNA was 100 nM. After that, culture medium was replaced by Lipofectamine 2000 reagent: siRNA complexes and cultured for 24 h. After transfection, cells were treated with LLL12B or DMSO only for 48 h, and then cell viability was measured by MTT assay.
Cells were seeded in 96-well plates at a density of 3,000 cells. After overnight attachment, cells were treated with different concentrations of LLL12B and/or cisplatin or DMSO alone. After 72 h treatment, 20 μL of MTT solution was added for 4 h of additional culture, and then 150 μL of DMF solubilization solution was added with shaking overnight in the dark. Absorbance was measured at 595 nm. Combination index (CI) was calculated using ComuSyn software. […]
(Formazan colour is commonly taken as a measure of viable cells.)

A further data set has as its system active caspase-3/7. As to the kind of experiment: Apoptosis assay (Caspase-3/7 Fluorescence Assay Kit). Type of data set: cell-based, human. To be noted: D425, D283, UW426 cells; LLL12B 1 μM, cisplatin 2.5 μM, 5 h. The protocol:
Cells were plated in 96-well plates (8000–12,000 cells/well) and allowed to adhere overnight. Cells were treated with LLL12B or DMSO only. After 5 h treatment, active caspase-3/7 were measured using Caspase-3/7 Fluorescence Assay Kit (Cayman, Ann Arbor, MI) according to the manufacture’s instruction. Briefly, cells were centrifuged in the plate (800 g, 5 min) and the culture medium was aspirated, and then 200 µL of assay buffer was added to each well to wash the cells and the supernatant was removed after centrifuge. After that, 100 µL of cell-based assay lysis buffer was added to each well with shaking for 30 min at room temperature. Subsequently, 90 µL of the supernatant from each well was transferred to a corresponding well in a new black 96-well plate and 10 µL of assay buffer was added to appropriate wells. The plate was incubated at 37 °C for 90 min followed by addition of 100 µL of the caspase-3/7 substrate solution. Finally, the fluorescence intensity of each well was read at excitation 485 nm and emission 535 nm. All treatments were performed in triplicate.

Data set [6] has as its system D283 medulloblastoma cells. As to the kind of experiment: Tumorsphere formation, D283. Type of data set: cell-based, human. To be noted: LLL12B 0.5 and 1 μM and/or cisplatin 0.5 and 1 μM, 8 days. Here is the method: (§3) Cells were seeded (10,000 cells/mL) in ultra-low attachment 6-wells plates and treated with different concentrations of LLL12B and/or cisplatin or DMSO alone for 8 days. One-half of the culture volume of fresh 3D Tumorsphere Medium XF was added every 4 days. Images were captured on a Nikon Eclipse TS100 microscope. Original magnification, × 10.

The subject of data set [7] is D425 medulloblastoma cells. As to the kind of experiment: Tumorsphere formation, D425. In kind it is cell-based, human. As to conditions: LLL12B 0.5 and 1 μM and/or cisplatin 0.5 and 1 μM, 8 days. Here is the method: as §3
Data set [8] deals with D283 medulloblastoma xenografts. As to the kind of experiment: D283 tumor xenograft model in nude mice. Type of data set: in vivo. As to conditions: for STAT3 phosphorylation in tumors: Western blot, LLL12B 2.5 mg/kg and/or cisplatin 5 mg/kg. The protocol:
(§4) All animal studies were carried out in accordance with the standard procedures approved by the Institutional Animal Care and Use Committee (IACUC) of University of Maryland School of Medicine and University of Florida respectively. Furthermore, our animal studies were performed in compliance with the ARRIVE guidelines. Cells (1 × 10^7 cells/sites) were suspended in PBS mixed with matrigel (1:1, Corning, # 354234) and injected subcutaneously into the flank region of 4 to 5 week-old female athymic nude mice (Envigo). When the volume of the tumors reached approximately 100 mm^3, mice were randomized into four groups: (1) LLL12B (2.5 mg/kg) treated orally once daily only, (2) cisplatin (5 mg/kg) intraperitoneal injection treated once every four days only, (3) combination of LLL12B (2.5 mg/kg) oral once daily and cisplatin (5 mg/kg) intraperitoneal injection once every four days and (4) vehicle only once daily. Tumor growth was determined by measuring the minor (W) and major (L) diameter once every other day with a caliper, and calculated according to the following equation: tumor volume = 0.5236 × L × W^2. Body weight and clinical signs were monitored once every other day. In vivo PK studies in mice were performed by Dr. Chenglong Li’s laboratory at the University of Florida.
Figure 6 LLL12B suppressed tumor growth in medulloblastoma xenografts. (A) Tumor volume, (B) Tumor weights. (C) Tumor samples. (D) Body weights. (E) Western blot of tumor samples. The protein expression levels of P-STAT3(Y705), STAT3, and GAPDH. D283 cells (1 × 10^7 cells/tumor) were harvested and suspended in PBS and then implanted subcutaneously with matrigel (1:1 ratio) into the flank region of 4 to 5 week-old female athymic nude mice. Mice were randomized into three groups (6 mice for each group) and treated with LLL12B (2.5 mg/kg or 5 mg/kg, oral gavage, once daily).
Figure 9 LLL12B and cisplatin combination suppressed tumor growth in D283 medulloblastoma xenografts. (A) Tumor volumes. (B) Tumor weights. (C) Body weight. (D) Western blots to analyze protein expression in the representative tumor samples. Expression levels of p-STAT3(Y705), STAT3, CyclinD1, Survivin, and GAPDH. D283 medulloblastoma cells (1 × 10^7 cells/tumor) were implanted subcutaneously into the flank region of 4 to 5 week-old female athymic nude mice. Mice were randomized into four groups (5 mice for each group) and treated with LLL12B (2.5 mg/kg, oral gavage, once daily) and/or cisplatin (5 mg/kg, intraperitoneal injection, once every 4 days) or vehicle alone.

Data set [9] has as its system D425 medulloblastoma xenografts. As to the kind of experiment: D425 tumor xenograft model in nude mice. In kind it is in vivo. To be noted: for STAT3 phosphorylation in tumors: Western blot, LLL12B 2.5 mg/kg and/or cisplatin 5 mg/kg. Here is the method:
as §4
Figure 10 Anti-neoplastic activity of LLL12B and cisplatin combined treatment of D425 medulloblastoma xenografts. (A) Tumor volumes. (B) Tumor weights. (C) Body weights. (D) Protein analysis of the representative tumor samples by western blots. Expression levels of p-STAT3 (Y705), STAT3, CyclinD1, Survivin, and GAPDH. D245 medulloblastoma cells (1 × 10^7 cells/tumor) were implanted subcutaneously into the flank region of 4 to 5 week-old female athymic nude mice. Mice were randomized into four groups (5 mice for each group) and treated with LLL12B (2.5 mg/kg, oral gavage, once daily) and/or cisplatin (5 mg/kg, intraperitoneal injection, once every 4 days) or vehicle alone.

Data set [10] relates to D425 medulloblastoma cells. As to the kind of experiment: Pilot orthotopic tumor model in vivo. On the set-up: species or system mice.
In another data set the test system is STAT3 protein. Further details: method as in PMID 32412740. To be noted: intact MCF-7 breast cancer cells; cited from earlier work.
The mark [11] stands for this setting: LLL12B 2.5 mg/kg oral daily and/or cisplatin 5 mg/kg ip every 4 days.

Like-named read-outs stand apart in the source and are kept apart here.

What is called AUC is concentration integrated over time. Broadly, the Cmax is the highest concentration seen after dosing. One may read the bioavailability as dose-corrected exposure relative to a reference, in per cent. Usually Tmax stands for the time from dosing to the highest level.

With `CN(C)C(=O)Oc1cccc2c1C(=O)c1cccc(S(N)(=O)=O)c1C2=O` [LLL12B], the “Cmax compared to LLL12” value in data set [1] (LLL12B 8 mg/kg vs LLL12 20 mg/kg) is reported as “more than doubled”. In addition, the AUC in data set [1] (mouse, in vivo, 8 mg/kg) worked out at 1.36 µM·h. Moreover, the Cmax in data set [1] (mouse, in vivo, 8 mg/kg) is 278 nM. Besides, in [1] (mouse, in vivo, 8 mg/kg, read-out: Bioavailability (F)), the bioavailability is 47.7%. Further, the Tmax was roughly 8 h in data set [1] (mouse, in vivo, po, 8 mg/kg, one time 8 mg/kg, read-out: oral Tmax) and 7.68 h in data set [1] (mouse, in vivo, po, 8 mg/kg, read-out: Tmax). The “STAT3 phosphorylation (Y705)” value in data set [2] (D283, D425, UW426, UW288 cells, 0.5 to 2.5 μM, 16 h) is on record as “dose-dependently suppressed”. Moreover, the P-STAT3 levels result in data set [2] (UW426, UW288, D283 cells, 0.5, 1.0, 2.5 μM, 4 and 8 h) was “significantly reduced”. In addition, the “expression of Cyclin D1 and Survivin” value with Cyclin D1 and Survivin was “downregulated”. Besides, the P-AKT result in the data set with P-AKT (D283 cells, 0.5 to 2.5 μM) was “induced”; with P-AKT (UW288 cells, 0.5 to 2.5 μM) it was “some inhibition”; with P-AKT (UW426 cells, 2.5 μM) it was “bound back”; in the data set with P-AKT (UW426 cells, 0.5 and 1.0 μM), “reduced”. Besides, the P-ERK result with P-ERK (D283 cells) is reported as “did not generally inhibit”; in the data set on P-ERK (UW288 cells) it was “some inhibition”; in the data set with P-ERK (UW426 cells) it was “induced”. For the same compound, the “IL-6 induced phosphorylation of STAT3” value in data set [3] is “significantly inhibited”. Moreover, the “induction of phosphorylated STAT1 protein by INF-γ” value in [4] was “without affecting”. For the same compound, the cell viability entry in data set [5] is “could impede cell viability”. Besides, the “caspase-3/7 activation (apoptosis)” value in the data set on active caspase-3/7 is recorded as “increased”. The tumorsphere formation result in data set [6] is “numbers and sizes of tumorspheres decreased”; in data set [7] it was “numbers and sizes of tumorspheres decreased”. In addition, the “suppression of tumor growth and tumor weights vs vehicle” value in data set [8] (2.5 mg/kg oral gavage once daily) is recorded as ~ 40%; in [8] (5 mg/kg oral gavage once daily), ~ 75%. The “body weight of mice” value in data set [8] (2.5 or 5 mg/kg oral gavage once daily) is “no significant impact”. Also, in [8] (2.5 or 5 mg/kg oral, Western blot vs vehicle), the “P-STAT3(Y705) level in tumors” value was “dose-dependently down-regulated”. In addition, the body weights result in data set [8] (setting [11]) and in data set [9] (setting [11]) was “little effect” throughout. Also, the “STAT3 phosphorylation in tumors” value in data set [8] and in data set [9] was “reduced” in each case. The “survival of mice with tumors” value in data set [10] is given as “limited extension of the survival”.

In the case of `N.N.[Cl][Pt][Cl]` [cisplatin], in the data set with active caspase-3/7, the “caspase-3/7 activation (apoptosis)” value is “increased”. Also, the “STAT3 phosphorylation in tumors” value in data set [8] and in data set [9] was “reduce or partially reduce” throughout.

For the compound `NS(=O)(=O)c1cccc2c1C(=O)c1cccc(O)c1C2=O` [LLL12], in data set [1] (20 mg/kg), the AUCall was found to be 40.7 nM·h, the “Bioavailability (F)” value stood at 2.73%, the highest level (Cmax) was 176 nM and the Tmax came out at 0.083 h. Further, the “oral Tmax” value in [1] (one time 20 mg/kg) came out at 5 min. Moreover, in data set [10] (vehicle 19 days), the “survival (average)” value is on record as 24 days. Moreover, in the data set with STAT3 protein, the “binding to STAT3 protein in intact cells” value is “binds to STAT3 protein”.

These data come from publication PMC7985203, “LLL12B, a small molecule STAT3 inhibitor, induces growth arrest, apoptosis, and enhances cisplatin-mediated cytotoxicity in medulloblastoma cells” (Scientific Reports, 2021).
